Measured values from a melting point compilation (Tetko et al.; mined from patent text by program, amines drawn as free bases though some values may be those of a salt).

Compound	melting point [°C]
O=c1cc(-c2ccccc2)cc(-c2ccccc2)[nH]1	209 to 212
CC(C)C(=O)N(C(=O)OC(C)(C)C)C(CC(N)C(=O)OCc1ccccc1)C(N)=O (stereo unspecified)	112 to 113
N#CC(C#N)=C1Sc2nc3cc([N+](=O)[O-])c([N+](=O)[O-])cc3nc2S1	> 300
CCOC(=O)NCCOc1cc(Oc2ccc(C(F)(F)F)cc2Cl)ccc1[N+](=O)[O-]	70 to 71
CC(CN1CCCC1)N1c2ccccc2Sc2ccc(C(=O)NCc3c(Cl)cccc3Cl)cc21 (racemic)	138
Cc1c(Cc2ccccc2)c(=O)n(Cc2ccccc2)c2cc(OCC(=O)NO)cc(OCC(=O)NO)c12	121 to 127
Cc1c(C)c2c(c(C)c1NC=O)CC(C)(C)O2	177 to 179
CN1C(C)(C)CN(CCO)C(=O)C1(C)C	77 to 80
OCc1cccc(-n2cccc2)n1	55
O=[N+]([O-])c1sccc1Nc1ccccc1	105
Cc1cc(C)c2nccn2n1	70 to 74
CCOC(=O)Cc1c(C(F)(F)F)nc(C)[nH]c1=O	108 to 110
CCCCCCN(C=CC=C(C#N)C#N)CCCCCC	112 to 113
CC(C)(C)OC(=O)N[C@@H]1CN(C2CCCCC2)c2ccccc2NC1=O	156 to 159
CCc1nc2cc(C)c(Cl)nc2n1-c1ccc(CCNC(=O)NS(=O)(=O)c2ccc(C)cc2)cc1	205 to 206
C#Cc1cccc(Nc2ncnc3cc(OCCOC(C)=O)c(OCCOC(C)=O)cc23)c1	137 to 138
COc1ccccc1NC(=O)Nc1nc(Nc2ccccc2-c2ccccc2)nc(N(CCC(=O)O)Cc2ccc(-c3ccccc3)cc2)n1	144 to 147
CC(C)(C)OC(=O)C(C#N)C(c1cccc2ccccc12)c1cccc2ccccc12 (stereo unspecified)	156 to 157
O=C1N(CCN2CCC(c3noc4cc(F)ccc34)CC2)CCN1Cc1ccccc1	126 to 130
C(=NNc1cc(N2CCOCC2)nc(OCCc2ccccn2)n1)c1c[nH]c2ccccc12	160 to 165
Cc1ccc(Nc2nnc(Cc3ccncc3)c3ccccc23)cc1C	180 to 181
CC12CCC(Oc3c(F)c(F)c(C(F)(F)F)c(F)c3F)=CC1=CCC1C2CCC2(C)C(OS(=O)(=O)C(F)(F)F)=CCC12 (stereo unspecified)	106 to 107
COc1ccc(-c2cc(C(=O)O)c(=O)n(CC3CC3)n2)cc1	154 to 155
CCOC1CC(n2cc(CC)c(=O)[nH]c2=O)OC1CNC(=O)Cc1c(Cl)cccc1Cl (stereo unspecified)	249 to 250

Compound	melting point [°C]
COC(=O)c1ccc(I)c2c1Nc1ccccc1C2	119 to 121
CCOC(=O)c1cc2c(C)cccc2n1CCC(=O)O	133 to 134
CCCCCCCCOc1ccc(-c2cnc(-c3ccc(O)c(F)c3F)nc2)cn1	130 to 132
CCCc1nc2c(N)nc3ccccc3c2n1CCCC(CC(C)C)=NO	207 to 209
CC(=O)Nc1cc(CO)ccn1	145
Cc1ccc(S(=O)(=O)OC[C@H]2COCCO2)cc1	53 to 54
CCc1ccc(S(=O)(=O)O)cc1	45.1 to 46.5
CC(C)N1CCOC(CN2C(=O)C3(COc4cc5c(cc43)OCCO5)c3ccccc32)C1 (stereo unspecified)	102 to 125
COc1ccc(S(=O)(=O)C[N+](=O)[O-])s1	70 to 71
COc1cc(C=C[N+](=O)[O-])cc(OC)c1OC	116 to 118
Cc1oc2c(C)c(Cc3ccccc3)c(C3CC(=O)NC(=O)C3)cc2c1C	138
Oc1ccc(CCc2cc(O)cc(O)c2)cc1	160 to 161
Cc1cccc(N2CCN(c3ccc(S(C)(=O)=O)nn3)CC2)c1	201
COc1cc2c(c(OC)c1/C=C/c1ccc(COC(C)=O)cc1)C(C)(C)CCC2(C)C	73 to 74
C=NC(c1cccc(Nc2n[nH]c3ncnc(Nc4cccc(Cl)c4)c23)c1)N(C)C (stereo unspecified)	175 to 177
COc1cc(NC(=O)Nc2ccc(C3CCN(C(=O)Nc4ccc(OCC(O)CO)cc4Cl)CC3)cc2)cc(OC)c1 (stereo unspecified)	105 to 108
CCOC(=O)Nc1ccc(OCc2nc3ccccc3s2)cc1	149 to 150
CC1CNC(c2n[nH]c(-c3ccc(Cl)cc3)c2-c2ccncc2)C(C)N1 (stereo unspecified)	236 to 238
O=S(=O)(C1CC1)C(F)(F)C(O)(Cn1cncn1)c1ccc(F)cc1 (single isomer, unassigned; (+))	144 to 145
O=C(NCc1ccccc1)c1ccc(OC2CCCC2)c2oc3ccccc3c12	172 to 175
CC(C)n1c(=O)nc(-c2ccc3c(c2)OCO3)c2cc3c(cc21)OCO3	125 to 127
CC(=O)N1CCC(N(C)C(=O)c2ccc3nonc3c2)CC1	173 to 175
CCc1c(-c2ccc(CO)cc2)c2cc(C(C)=O)c3cccc1n32	73 to 77
Nc1cc(C(F)(F)F)ccc1-c1cc(Oc2ccc3cccnc3c2)ncn1	193 to 194

Compound	melting point [°C]
COC(=O)c1cncc(OC2SCC(O)C(O)C2O)c1 (stereo unspecified)	137
O=P1(c2ccccc2)CCCC1CO (stereo unspecified)	109 to 110
Cc1ccc(C)c(NC(=O)OC(C)(C)C)c1	103 to 104
O=C(O)COc1ccc2c(-c3ccccc3)noc2c1Cl	219 to 221
NCC(CC(=O)O)CC1CC1 (stereo unspecified)	172 to 173
Cc1c(N)ccc(Cc2ccc(N)c(C)c2C)c1C	141 to 143
CC(Oc1ccc2oc3cc(Cl)ccc3c2c1)C(N)=O (stereo unspecified)	185 to 187
Nc1c(Br)cc(-n2cnnc2)cc1C(F)(F)F	202 to 203
c1ccc2nc(COc3cccc4ccccc34)ccc2c1	99 to 101
O=c1c(-c2nc3ccccc3[nH]2)coc2ccccc12	154
CN1Cc2cncn2-c2cccc(Br)c2C1=O	196 to 197
CCc1nc2c(N)nc3cccnc3c2n1CCCCCC(N)=O	220 to 221
COC(=O)c1ccc([N+](=O)[O-])cc1NC(=O)c1ccc(C(C)(C)C)cc1	146 to 148
COC(=O)Cn1c(=O)c2ccccc2n(CCCCN2CCC(OC(c3ccccc3)c3ccccc3)CC2)c1=O	91 to 93
CCOC(=O)c1ccc(CN2CCN(c3cc(-c4ccccc4)c4ccc(=O)ccn34)CC2)cc1	129
Cc1ccc(-n2c3ccccc3c3cc(C(C#N)=C(C#N)C#N)ccc32)cc1	233 to 234
CCCOc1ccc(F)cc1C(=O)C=CN(C)C	43 to 46
Cc1nc(N2CCN(Cc3ccc(C(F)F)o3)C2=O)sc1C(=O)NCc1cccnc1	142 to 143
C(=Nc1onc2c1CCC2)c1ccccc1	166
O=C(O)C1Cc2c([nH]c3ccccc23)CN1C(=S)SCC=Cc1ccccc1 (stereo unspecified)	200 to 202
CCOC(=O)NC(C(=O)NN(Cc1ccc(-c2cncs2)cc1)CC(O)C(Cc1ccccc1)NC(=O)C(NC(=O)OC)C(C)CC)C(C)C (stereo unspecified)	200 to 203
Cc1sccc1-c1nc2c3ccsc3ccn2c1N	161 to 162
N#Cc1cnc2cc3ccc(O)cc3cc2c1Nc1ccc(Cl)cc1Cl	> 300
